We go through six molecules from patent US20230085307A1, “PYRIDAZINONE COMPOUND AND HERBICIDE” (NISSAN CHEMICAL CORPORATION, priority 2019, published 2023).

Experiment [1] has as its system Japanese bulrush. Description: Test Example 1: herbicidal activity, application before weed generation under submerged conditions (Table 16, symbol B). Particulars: for Herbicidal effect on B: Japanese bulrush (grade 0-5): 320 g/ha applied herbicide. The experiment is classed as in vivo, Japanese bulrush (Schoenoplectus juncoides). Summed up:
(§1)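 Submerged Wagner pots (alluvial soil, 4 cm water) sown with weed seeds and planted with 2.5-leaf rice seedlings; emulsifiable concentrate diluted in water applied to water surface on sowing day. Held in greenhouse at 25-30 °C; injury scored 0-5 by herbicidal rate after three weeks.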

Experiment [2] concerns Chinese sprangletop. The experiment is described as follows: Test Example 3: herbicidal effect by foliage application, Wagner pot (Table 18, symbol D). The experiment is classed as in vivo, chinese sprangletop (Leptochloa chinensis). Summed up:
(§2)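 Plants were sown in alluvial soil held under 0.1–0.5 cm standing water and grown 14 days in a greenhouse at 25–30 °C. An emulsifiable formulation, water-diluted to the set dose, was then sprayed onto the foliage, and effects were scored three weeks later using previously defined criteria.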

The test system of experiment [3] is oval-leafed pondweed. Description: Test Example 1: herbicidal activity, application before weed generation under submerged conditions (Table 16, symbol C). The experiment is classed as in vivo, oval-leafed pondweed (Monochoria vaginalis). The settings on record: for Herbicidal effect on C: oval-leafed pondweed (grade 0-5): 320 g/ha applied herbicide. The essentials: as §1

Experiment [4] concerns oval-leafed pondweed. The experiment is described as follows: Test Example 2: herbicidal activity, application during weed generation under submerged conditions (Table 17, symbol C). The experiment is classed as in vivo, oval-leafed pondweed (Monochoria vaginalis). Particulars: for herbicidal effect rating, C: oval-leafed pondweed: AAH 320 g/ha, application during weed generation, submerged conditions; for herbicidal effect grade, C: oval-leafed pondweed: application during weed generation under submerged conditions. The essentials: (§3)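 Alluvial soil in Wagner pots was flooded to 4 cm depth and sown with the three weeds together; pots were kept in a greenhouse at 25° C. to 30° C. At the one to two leaf stage, an emulsion formulation diluted in water to a set rate went onto the water surface; scored three weeks later.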

For experiment [5], the system named is late watergrass. Description: Test Example 1: herbicidal activity, application before weed generation under submerged conditions (Table 16, symbol A). Particulars: for Herbicidal effect on A: late watergrass (grade 0-5): 320 g/ha applied herbicide. Format: in vivo, late watergrass (Echinochloa oryzicola). Summed up: as §1
The subject of experiment [6] is barnyard grass. Description: Test Example 3: herbicidal effect by foliage application, Wagner pot (Table 18, symbol H). The experiment is classed as in vivo, barnyard grass (Echinochloa crus-galli). Summed up: as §2
In experiment [7] the test system is late watergrass. Description: Test Example 2: herbicidal activity, application during weed generation under submerged conditions (Table 17, symbol A). The experiment is classed as in vivo, late watergrass (Echinochloa oryzicola). The settings on record: for herbicidal effect rating, A: late watergrass: AAH 320 g/ha, application during weed generation, submerged conditions; for herbicidal effect grade, A: late watergrass: application during weed generation under submerged conditions. The essentials:
as §3

Experiment [8] relates to Japanese bulrush. The experiment is described as follows: Test Example 2: herbicidal activity, application during weed generation under submerged conditions (Table 17, symbol B). The experiment is classed as in vivo, Japanese bulrush (Schoenoplectus juncoides). The settings on record: for herbicidal effect rating, B: Japanese bulrush: AAH 320 g/ha, application during weed generation, submerged conditions; for herbicidal effect grade, B: Japanese bulrush: application during weed generation under submerged conditions. The essentials:
as §3

The subject of experiment [9] is rice flat sedge. Description: Test Example 3: herbicidal effect by foliage application, Wagner pot (Table 18, symbol E). The experiment is classed as in vivo, rice flat sedge (Cyperus iria). The essentials:
as §2

Where [10] appears, read: amount of applied herbicide 320 g/ha.
Where [11] appears, read: amount of applied herbicide 438 g/ha.

`Cc1nn(C)c(=O)c(-c2c(-c3ccc([S+]([O-])CC(F)F)cc3)sc3ccc(F)cc23)c1O` (stereo not drawn) [2-264]: the “Herbicidal effect on B: Japanese bulrush (grade 0-5)” value (from here on “Herbicidal effect on B”) in [1] is 4 (Herbicidal rate of 70% or more and less than 90%). The “herbicidal effect on D: Chinese sprangletop” value in experiment [2] (setting [10]) is 3 (Herbicidal rate of 40% or more and less than 70%). Also, the “Herbicidal effect on C: oval-leafed pondweed (grade 0-5)” value (shortened to “Herbicidal effect on C”) in [3] was 3 (Herbicidal rate of 40% or more and less than 70%). In addition, in experiment [4], the “herbicidal effect rating, C: oval-leafed pondweed” value (“herbicidal effect rating, C” below) is 3 (Herbicidal rate of 40% or more and less than 70%). Further, the “Herbicidal effect on A: late watergrass (grade 0-5)” value in experiment [5] was 4 (Herbicidal rate of 70% or more and less than 90%). For the same molecule, in [6] (setting [10]), the “herbicidal effect on H: barnyard grass” value is listed as 5 (Herbicidal rate of 90% or more (almost completely withered)). Further, in [7], the “herbicidal effect rating, A: late watergrass” value was 3 (Herbicidal rate of 40% or more and less than 70%). Besides, in [8], the “herbicidal effect rating, B: Japanese bulrush” value (shortened to “herbicidal effect rating, B”) is 3 (Herbicidal rate of 40% or more and less than 70%). The “herbicidal effect on E: rice flat sedge” value in [9] (setting [10]) is on record as 5 (Herbicidal rate of 90% or more (almost completely withered)).
Take `Cc1nn(C)c(=O)c(-c2c(-c3ccc(C[S+](C)[O-])cc3)sc3ccc(F)cc23)c1O` (stereo not drawn) [2-332]: the “Herbicidal effect on B” value in [1] is on record as 0 (Herbicidal rate of 5% or less (almost no effect)). For the same molecule, in [2] (setting [10]), the “herbicidal effect on D: Chinese sprangletop” value is 3 (Herbicidal rate of 40% or more and less than 70%). Moreover, the “Herbicidal effect on C” value in experiment [3] was 0 (Herbicidal rate of 5% or less (almost no effect)). For the same molecule, the “herbicidal effect rating, C” value in [4] is given as 0 (Herbicidal rate of 5% or less (almost no effect)). In addition, the “Herbicidal effect on A: late watergrass (grade 0-5)” value in experiment [5] is 2 (Herbicidal rate of 20% or more and less than 40%). Besides, the “herbicidal effect on H: barnyard grass” value in [6] (setting [10]) is listed as 5 (Herbicidal rate of 90% or more (almost completely withered)). For the same molecule, in experiment [7], the “herbicidal effect rating, A: late watergrass” value is 3 (Herbicidal rate of 40% or more and less than 70%). In experiment [8], the “herbicidal effect rating, B” value is given as 0 (Herbicidal rate of 5% or less (almost no effect)). For the same molecule, in [9] (setting [10]), the “herbicidal effect on E: rice flat sedge” value is 3 (Herbicidal rate of 40% or more and less than 70%).
As for `CCCC(=O)Oc1c(C)nn(C)c(=O)c1-c1c(-c2ccc(OC)c(Cl)c2)sc2ccc(F)cc12` [2-371], the “Herbicidal effect on B” value in [1] is 3 (Herbicidal rate of 40% or more and less than 70%). In addition, the “herbicidal effect on D: Chinese sprangletop” value in experiment [2] (setting [10]) is 4 (Herbicidal rate of 70% or more and less than 90%). The “Herbicidal effect on C” value in experiment [3] was 4 (Herbicidal rate of 70% or more and less than 90%). Moreover, the “herbicidal effect rating, C” value in [4] was 4 (Herbicidal rate of 70% or more and less than 90%). The “Herbicidal effect on A: late watergrass (grade 0-5)” value in experiment [5] is 3 (Herbicidal rate of 40% or more and less than 70%). Also, in experiment [6] (setting [10]), the “herbicidal effect on H: barnyard grass” value is 4 (Herbicidal rate of 70% or more and less than 90%). For the same molecule, the “herbicidal effect rating, A: late watergrass” value in [7] is listed as 0 (Herbicidal rate of 5% or less (almost no effect)). For the same molecule, the “herbicidal effect rating, B” value in [8] is 3 (Herbicidal rate of 40% or more and less than 70%). Besides, the “herbicidal effect on E: rice flat sedge” value in experiment [9] (setting [10]) is 4 (Herbicidal rate of 70% or more and less than 90%).
For the molecule `CCCOc1ccc(-c2oc3ccc(C)cc3c2-c2c(OC(=O)CCC)c(C)nn(C)c2=O)cc1` [9-050], the “Herbicidal effect, B: Japanese bulrush” value in [1] (setting [10]) is 5 (Herbicidal rate of 90% or more (almost completely withered)). For the same molecule, the “Herbicidal effect on D (Chinese sprangletop), foliage application” value (“Herbicidal effect on D … foliage application” for short) in [2] (setting [10]) is 3 (Herbicidal rate of 40% or more and less than 70%). Moreover, the “Herbicidal effect, C: oval-leafed pondweed” value (shortened to “Herbicidal effect, C”) in experiment [3] (setting [10]) was 5 (Herbicidal rate of 90% or more (almost completely withered)). Further, the “herbicidal effect grade, C: oval-leafed pondweed” value (from here on “herbicidal effect grade, C”) in experiment [4] (setting [10]) is recorded as 5 (Herbicidal rate of 90% or more (almost completely withered)). Also, in experiment [5] (setting [10]), the “Herbicidal effect, A: late watergrass” value is reported as 5 (Herbicidal rate of 90% or more (almost completely withered)). Moreover, the “Herbicidal effect on H (barnyard grass), foliage application” value (shortened to “Herbicidal effect on H (barnyard grass)”) in experiment [6] (setting [10]) was 4 (Herbicidal rate of 70% or more and less than 90%). Further, the “herbicidal effect grade, A: late watergrass” value in [7] (setting [10]) was 3 (Herbicidal rate of 40% or more and less than 70%). The “herbicidal effect grade, B: Japanese bulrush” value (shortened to “herbicidal effect grade, B”) in [8] (setting [10]) was 3 (Herbicidal rate of 40% or more and less than 70%). Besides, the “Herbicidal effect on E (rice flat sedge), foliage application” value (“Herbicidal effect on E (rice flat sedge)” below) in experiment [9] (setting [10]) is 5 (Herbicidal rate of 90% or more (almost completely withered)).
With `CCCC(=O)Oc1c(C)nn(C)c(=O)c1-c1c(-c2ccc(OCC(C)C)cc2)oc2ccc(C)cc12` [9-052], the “Herbicidal effect, B: Japanese bulrush” value in [1] (setting [10]) is listed as 5 (Herbicidal rate of 90% or more (almost completely withered)). Besides, the “Herbicidal effect on D … foliage application” value in experiment [2] (setting [10]) is on record as 0 (Herbicidal rate of 5% or less (almost no effect)). Besides, the “Herbicidal effect, C” value in [3] (setting [10]) is 4 (Herbicidal rate of 70% or more and less than 90%). Also, in experiment [4] (setting [10]), the “herbicidal effect grade, C” value was 4 (Herbicidal rate of 70% or more and less than 90%). The “Herbicidal effect, A: late watergrass” value in experiment [5] (setting [10]) is recorded as 5 (Herbicidal rate of 90% or more (almost completely withered)). Also, the “Herbicidal effect on H (barnyard grass)” value in experiment [6] (setting [10]) is on record as 5 (Herbicidal rate of 90% or more (almost completely withered)). The “herbicidal effect grade, A: late watergrass” value in experiment [7] (setting [10]) is 3 (Herbicidal rate of 40% or more and less than 70%). In experiment [8] (setting [10]), the “herbicidal effect grade, B” value is 3 (Herbicidal rate of 40% or more and less than 70%). Also, the “Herbicidal effect on E (rice flat sedge)” value in experiment [9] (setting [10]) was 4 (Herbicidal rate of 70% or more and less than 90%).
As to `CCCC(=O)Oc1c(C)nn(C)c(=O)c1-c1c(-c2ccc(SC)cc2)oc2ccc(C)cc12` [9-056], the “Herbicidal effect, B: Japanese bulrush” value in experiment [1] (setting [11]) is 4 (Herbicidal rate of 70% or more and less than 90%). Besides, the “Herbicidal effect on D … foliage application” value in experiment [2] (setting [11]) was 3 (Herbicidal rate of 40% or more and less than 70%). Also, in [3] (setting [11]), the “Herbicidal effect, C” value is 4 (Herbicidal rate of 70% or more and less than 90%). For the same molecule, the “herbicidal effect grade, C” value in experiment [4] (setting [11]) was 4 (Herbicidal rate of 70% or more and less than 90%). In addition, in [5] (setting [11]), the “Herbicidal effect, A: late watergrass” value is on record as 5 (Herbicidal rate of 90% or more (almost completely withered)). The “Herbicidal effect on H (barnyard grass)” value in [6] (setting [11]) is 5 (Herbicidal rate of 90% or more (almost completely withered)). In experiment [7] (setting [11]), the “herbicidal effect grade, A: late watergrass” value is 3 (Herbicidal rate of 40% or more and less than 70%). Besides, the “herbicidal effect grade, B” value in [8] (setting [11]) is 3 (Herbicidal rate of 40% or more and less than 70%). Also, in experiment [9] (setting [11]), the “Herbicidal effect on E (rice flat sedge)” value is 4 (Herbicidal rate of 70% or more and less than 90%).
